Our source for the inhibition values is ChEMBL document CHEMBL6134901 (J Med Chem, 2025).

The subject of the assay is Clostridioides difficile. The assay is described as follows: Antibacterial activity against Clostridium difficile ATTC43255 assessed as spore germination inhibition at 45 uM incubated for 60 mins by spectrometry relative to control. Type of assay: functional. Particulars: ATTC43255, 1 h.
Turning to `CCCCOc1ccc(-c2noc(-c3ccc(O)cc3)n2)cc1`, the inhibition (as a rule, the percentage by which the read-out fell short of the control) at 45 µM was less than 10%. Regarding `O=[N+]([O-])c1ccc(-c2nc(-c3ccc(OC4CCCC4)cc3)no2)cc1`, the inhibition at 45 µM is less than 10%. Take `Nc1ccc(-c2nc(-c3ccc(OC4CCCC4)cc3)no2)cc1`: the inhibition at 45 µM was less than 10%.

For `CCCCOc1ccc(-c2noc(-c3ccc(CNC(=O)OC(C)(C)C)cc3)n2)cc1`, the inhibition at 45 µM is less than 10%. With `CC(C)Oc1ncc(-c2nc(-c3cccc4c3ccn4CCCC(=O)O)no2)cc1Cl` [GSK-2018682], the inhibition at 45 µM is less than 10%.

In the case of `O=[N+]([O-])c1c[nH]c(-c2nc(-c3ccc(OC4CCCC4)cc3)no2)n1`, the inhibition at 45 µM was less than 10%. Consider `O=Cc1ccc(-c2noc(-c3ccc(O)cc3)n2)cc1`, for which the inhibition at 45 µM was less than 10%. With `FC(F)(F)c1ccc(Oc2ccc(-c3noc(-c4cc5ccccc5[nH]4)n3)cc2)cc1`, the inhibition at 45 µM is less than 10%.

On to `CCOc1ccc(-c2nc(-c3cccc4c3CCC4NCCO)no2)cc1OCC` (configuration not stated), for which the inhibition at 45 µM is less than 10%. Then `COC(OC)c1ccc(-c2noc(-c3ccc(O)cc3)n2)cc1`, with less than 10%. Regarding `O=C(Nc1c[nH]nc1-c1nc(-c2ccc(Oc3ccc(C(F)(F)F)cc3)cc2)no1)c1ccccc1`, the inhibition at 45 µM is less than 10%. As to `Oc1ccc(-c2nc(-c3ccc(OC4CC4)cc3)no2)cc1`, the inhibition at 45 µM is less than 10%. As to `COc1ccc(-c2nc(-c3ccc(Oc4ccc(C(F)(F)F)cc4)cc3)no2)cc1[N+](=O)[O-]`, the inhibition at 45 µM was less than 10%. As for `NCc1ccc(-c2nc(-c3ccc(OC4CCC4)cc3)no2)cc1`, the inhibition at 45 µM is 24%. For the molecule `FC(F)(F)c1ccc(Oc2ccc(-c3noc(-c4n[nH]cc4I)n3)cc2)cc1`, the inhibition at 45 µM was less than 10%. Then `OCC#Cc1c[nH]nc1-c1nc(-c2ccc(Oc3ccc(C(F)(F)F)cc3)cc2)no1`, with less than 10%.

For the molecule `FC(F)(F)c1ccc(Oc2ccc(-c3noc(-c4ccncc4)n3)cc2)cc1`, the inhibition at 45 µM was less than 10%. For `FC(F)(F)c1ccc(Oc2ccc(-c3noc(-c4n[nH]cc4NC4CCCC4)n3)cc2)cc1`, the inhibition at 45 µM is less than 10%. For `CC(C)(C)OC(=O)N1CCC(Nc2c[nH]nc2-c2nc(-c3ccc(Oc4ccc(C(F)(F)F)cc4)cc3)no2)CC1`, the inhibition at 45 µM is less than 10%. Turning to `CC(C)Oc1ncc(-c2nc(-c3cccc4c3CCC4NCCC(=O)O)no2)cc1C#N` (configuration not stated), the inhibition at 45 µM is less than 10%. The figure for `Oc1ccc(-c2nc(-c3ccc(Oc4ccc(I)cc4)cc3)no2)cc1` is 39%. The figure for `Oc1ccc(-c2nc(-c3ccc(Oc4ccc(C(F)(F)F)cc4)cc3)no2)cc1F` is 14%; for `N#Cc1ccc(-c2nc(-c3ccc(OC4CCCC4)cc3)no2)cc1` it is less than 10%. On to `O=[N+]([O-])c1cn(CCO)c(-c2nc(-c3ccc(OC4CCCC4)cc3)no2)n1`, for which the inhibition at 45 µM was less than 10%.

On to `FC(F)(F)c1ccc(Oc2ccc(-c3noc(-c4c[nH]c5ncccc45)n3)cc2)cc1`, for which the inhibition at 45 µM was less than 10%.

Take `CNCc1ccc(-c2nc(-c3ccc(OC4CCCC4)cc3)no2)cc1`: the inhibition at 45 µM came out at 37%.

Turning to `CCC(C)Nc1c[nH]nc1-c1nc(-c2ccc(Oc3ccc(C(F)(F)F)cc3)cc2)no1` (configuration not stated), the inhibition at 45 µM is less than 10%. With `CN1CCN(c2ccc(-c3noc(-c4ccc(O)cc4)n3)cc2)CC1`, the inhibition at 45 µM was less than 10%. Consider `CCCCOc1ccc(-c2noc(-c3ccc(CN)cc3)n2)cc1`, for which the inhibition at 45 µM is 32%.

For the molecule `Oc1ccc(-c2nc(-c3ccc(Oc4ccc(C(F)(F)F)cc4)cc3)no2)cn1`, the inhibition at 45 µM is less than 10%. For the molecule `NCc1ccc(-c2nc(-c3ccc(Oc4ccc(F)c(F)c4)cc3)no2)cc1`, the inhibition at 45 µM amounted to 44%. As to `FC(F)(F)c1ccc(Oc2ccc(-c3noc(-c4ccc5[nH]ccc5c4)n3)cc2)cc1`, the inhibition at 45 µM is less than 10%. Turning to `CCCCNc1c[nH]nc1-c1nc(-c2ccc(Oc3ccc(C(F)(F)F)cc3)cc2)no1`, the inhibition at 45 µM is less than 10%. In the case of `O=C1C[C@H](c2nc(-c3ccc(Oc4ccc(C(F)(F)F)cc4)cc3)no2)CN1`, the inhibition at 45 µM is less than 10%. As for `NCc1ccc(-c2nc(-c3ccc(Oc4ccc(C(F)(F)F)cc4)cn3)no2)cc1`, the inhibition at 45 µM is 24%. Turning to `FC(F)(F)c1ccc(Oc2ccc(-c3noc(-c4n[nH]c5ccccc45)n3)cc2)cc1`, the inhibition at 45 µM is less than 10%. For the molecule `Cc1c(Cl)c(C)[n+]([O-])c(Cl)c1-c1noc(-c2cc(O)c(O)c([N+](=O)[O-])c2)n1` [OPICAPONE], the inhibition at 45 µM was less than 10%. On to `FC(F)(F)c1ccc(Oc2ccc(-c3noc(-c4c[nH]cn4)n3)cc2)cc1`, for which the inhibition at 45 µM was less than 10%. Then `FC(F)(F)c1ccc(Oc2ccc(-c3noc(-c4nc[nH]n4)n3)cc2)cc1`, with less than 10%; and `FC(F)(F)c1ccc(Oc2ccc(-c3noc(-c4n[nH]cc4Br)n3)cc2)cc1`, with less than 10%; and `FC(F)(F)c1ccc(Oc2ccc(-c3noc(-c4cn[nH]c4)n3)cc2)cc1`, with less than 10%. With `Nc1cncc(-c2nc(-c3ccc(Oc4ccc(C(F)(F)F)cc4)cc3)no2)c1`, the inhibition at 45 µM is less than 10%. Turning to `Nc1ccc(-c2nc(-c3ccc(Oc4ccc(C(F)(F)F)cc4)cc3)no2)cc1F`, the inhibition at 45 µM was less than 10%. Regarding `CC(C)(C)OC(=O)NCc1ccc(-c2nc(-c3ccc(Oc4ccc(C(F)(F)F)cc4)cc3)no2)cc1`, the inhibition at 45 µM is less than 10%. Then `NCCCCc1nc(-c2ccc(Oc3ccc(F)cc3)cc2)no1`, with less than 10%; and `NCCc1ccc(Oc2cc(-c3noc(-c4ccc(CN)cc4)n3)ccn2)cc1`, with 27%; and `Oc1ccc(-c2nc(-c3ccc(Oc4ccc(C(F)(F)F)cc4)nc3)no2)cc1`, with less than 10%. Regarding `NCc1ccc(-c2nc(-c3ccc(OC(F)F)cc3)no2)cc1`, the inhibition at 45 µM is less than 10%. The figure for `Oc1ccc(-c2nc(-c3ccc4c(c3)OCO4)no2)cc1` is less than 10%; for `COc1cc(-c2nc(-c3ccc(Oc4ccc(C(F)(F)F)cc4)cc3)no2)ccc1O` it is less than 10%. Then `COc1ccc(-c2nc(-c3ccc(Oc4ccc(C(F)(F)F)cc4)cc3)no2)cc1OC`, with less than 10%; and `C#CCOc1ccc(-c2noc(-c3ccc(O)cc3)n2)cc1`, with less than 10%; and `N#Cc1ccc(Oc2ccc(-c3noc(-c4ccc(O)cc4)n3)cc2)cc1`, with less than 10%. On to `Oc1ccc(-c2nc(-c3ccc4oc5ccccc5c4c3)no2)cc1`, for which the inhibition at 45 µM was less than 10%. With `Oc1ccc(-c2nc(-c3ccc(Oc4cccc(I)c4)cc3)no2)cc1`, the inhibition at 45 µM turned out to be 37%. The figure for `c1nc2cc(-c3nc(-c4ccc(OC5CCCC5)cc4)no3)ccc2[nH]1` is less than 10%. For the molecule `O=[N+]([O-])c1cc(-c2nc(-c3ccc(Oc4ccc(C(F)(F)F)cc4)cc3)no2)cnc1O`, the inhibition at 45 µM was less than 10%.

Turning to `Oc1ccc(-c2nc(N3CCN(c4ccccc4)CC3)no2)cc1`, the inhibition at 45 µM is 18%. Regarding `COc1ccc(-c2noc(-c3ccc(O)cc3)n2)cc1OC`, the inhibition at 45 µM was less than 10%. With `CCOc1ccc(-c2noc(-c3ccc(O)cc3)n2)cc1`, the inhibition at 45 µM is less than 10%. `CC(C)(C)OC(=O)NCc1ccc(-c2nc(-c3ccc(OC4CCCC4)cc3)no2)cc1`: the inhibition at 45 µM was less than 10%. In the case of `Nc1cc(-c2nc(-c3ccc(Oc4ccc(C(F)(F)F)cc4)cc3)no2)cnc1O`, the inhibition at 45 µM was less than 10%. As for `Nc1cc(Oc2ccccc2)ccc1-c1noc(-c2ccc(O)cc2)n1`, the inhibition at 45 µM was 17%.

Turning to `COc1ccc(-c2nc(-c3ccc(OC4CCCC4)cc3)no2)cc1`, the inhibition at 45 µM is less than 10%.

For the molecule `c1cc2cc(-c3nc(-c4ccc(OC5CCCC5)cc4)no3)ccc2[nH]1`, the inhibition at 45 µM is less than 10%. As to `Oc1ccc(-c2nc(-c3ccc(OC4CCC4)cc3)no2)cc1`, the inhibition at 45 µM was less than 10%. On to `Oc1ccc(-c2nc(-c3ccc4oc5ccc(F)cc5c4c3)no2)cc1`, for which the inhibition at 45 µM is less than 10%. With `c1cc(-c2noc(-c3ccc4c(c3)CCN4)n2)ccc1OC1CCCC1`, the inhibition at 45 µM was less than 10%. On to `NCc1ccc(-c2nc(-c3ccc(OC4CC4)cc3)no2)cc1`, for which the inhibition at 45 µM turned out to be 12%. As to `CS(=O)(=O)Nc1ccc(Cc2noc(-c3ccc4[nH]cc(CCN)c4c3)n2)cc1` [L-694247], the inhibition at 45 µM is less than 10%. `Oc1ccc(-c2nc(-c3ccc(OC4CCOC4)cc3)no2)cc1` (configuration not stated): the inhibition at 45 µM was less than 10%. Turning to `Oc1ccc(-c2noc(-c3ccc(O)cc3)n2)cc1`, the inhibition at 45 µM was less than 10%. With `NCc1ccc(-c2nc(-c3ccnc(N4CCCC4)c3)no2)cc1`, the inhibition at 45 µM was found to be 13%. Regarding `Oc1ccc(-c2nc(-c3ccc(Oc4ccccc4CBr)cc3)no2)cc1`, the inhibition at 45 µM was determined as 27%.

On to `Oc1ccc(-c2nc(-c3ccc(C(O)C(F)(F)F)cc3)no2)cc1` (configuration not stated), for which the inhibition at 45 µM is less than 10%. Regarding `O=[N+]([O-])c1ccccc1Oc1ccc(-c2noc(-c3ccc(O)cc3)n2)cc1`, the inhibition at 45 µM came out at 21%. As for `N[C@H]1CC[C@H](Oc2ccc(-c3noc(-c4ccc(O)cc4)n3)cc2)CC1`, the inhibition at 45 µM was less than 10%. The figure for `O=C(O)c1ccc(-c2nc(-c3ccc(OC4CCCC4)cc3)no2)cc1` is less than 10%; for `O=C1C[C@@H](c2nc(-c3ccc(Oc4ccc(C(F)(F)F)cc4)cc3)no2)CN1` it is less than 10%; for `CC(C)(C)OC(=O)NCc1ccc(-c2nc(-c3ccc(Oc4ccc(F)c(F)c4)cc3)no2)cc1` it is less than 10%.

`NCc1ccc(-c2nc(-c3ccnc(-c4ccc(C(F)(F)F)cc4)c3)no2)cc1`: the inhibition at 45 µM was found to be 71%.

For `CC(C)(C)Oc1ccc(-c2noc(-c3ccc(O)cc3)n2)cc1`, the inhibition at 45 µM was less than 10%.

For `Oc1ccc(-c2nc(-c3ccc(Oc4ccc(C(F)(F)F)cc4)cc3)no2)cc1O`, the inhibition at 45 µM is less than 10%. On to `NCc1ccc(-c2nc(-c3ccc(O[C@@H]4CCNC4)cc3)no2)cc1`, for which the inhibition at 45 µM was less than 10%.

With `FC(F)(F)c1ccc(Oc2ccc(-c3noc(-c4n[nH]cc4Cl)n3)cc2)cc1`, the inhibition at 45 µM was less than 10%. With `Oc1ccc(-c2nc(-c3ccc(O[C@@H]4CCNC4)cc3)no2)cc1`, the inhibition at 45 µM was less than 10%.

As to `NCc1ccc(-c2nc(-c3ccc(OC4CCCC4)cc3)no2)cc1`, the inhibition at 45 µM amounted to 41%.
